Reference: patent US6255089A (priority 1998, dated 2001)
Where two headings read alike, the source gives them in different places.

What was measured:
[1] = biological target: T1, native 5-HT2A receptor (Rattus norvegicus, UniProt P14842); assay type: cell-based; conditions: 10 μM 5-HT
T1 construct: expressed in transfected cells; host or cells: COS-7

[2] = biological target: T2, cys→lys mutant 5-HT2A receptor (Rattus norvegicus, UniProt P14842, C322K); assay type: binding; design: expressed in transfected cells; host or cells: COS-7; conditions: for change in binding affinity at the mutant 5-HT2A receptor: cys→lys mutant versus native, 3H-ketanserin
T2 sequence (P14842 whole entry C322K): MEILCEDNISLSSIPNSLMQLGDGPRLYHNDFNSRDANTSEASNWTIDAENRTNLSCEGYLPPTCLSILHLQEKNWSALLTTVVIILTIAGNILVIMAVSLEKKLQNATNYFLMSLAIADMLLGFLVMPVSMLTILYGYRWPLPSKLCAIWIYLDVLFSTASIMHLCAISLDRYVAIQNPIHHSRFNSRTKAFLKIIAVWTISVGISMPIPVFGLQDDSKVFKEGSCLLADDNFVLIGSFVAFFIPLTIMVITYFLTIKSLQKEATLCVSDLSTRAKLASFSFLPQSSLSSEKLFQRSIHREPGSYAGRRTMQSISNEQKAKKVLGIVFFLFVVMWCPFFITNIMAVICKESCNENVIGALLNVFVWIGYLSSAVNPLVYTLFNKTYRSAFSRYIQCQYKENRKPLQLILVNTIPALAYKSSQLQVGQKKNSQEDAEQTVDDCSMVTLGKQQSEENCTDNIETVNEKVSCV
Description: Saturation experiments were performed by using [^3 H]ketanserin (0.1-5.0 nM).

[3] = biological target: T2, cys→lys mutant 5-HT2A receptor; conditions: saturation analysis
Description: (§1) Bmax values were determined by a BCA assay.
(§2) BMAX values were determined by a BCA assay.

[4] = biological target: T1, native 5-HT2A receptor; assay type: binding; conditions: 3H-ketanserin saturation
Description: as §1, §2

[5] = test system: 5-HT2C receptor; assay type: binding, rat; conditions: COS-7; native versus ser→lys and ser→phe mutant
[6] = test system: 5-HT2A cys→lys mutant receptor; conditions: inverse agonism; for reduction of constitutively activated IP basal activity: mutated 5-HT2A cys→lys receptor
[7] = test system: basal levels of IP production; assay type: cell-based, rat; conditions: COS-7, no agonist

T1 sequence (P14842 whole entry): as the sequence (P14842 whole entry C322K) above, with K322C counted along it

NCCc1c[nH]c2ccc(O)cc12 [5-HT, serotonin]
additional increase in IP production upon addition of 5-HT [1]: additional increase in IP production

COc1cc(CC(C)N)c(OC)cc1Br (stereo not shown) [DOB]
fold increase in affinity (Ki) ([2]; rat, cos-7 cells): 7.4 fold

COc1cc(CC(C)N)c(OC)cc1C (stereo not shown) [DOM]
fold increase in affinity (Ki) ([2]; cys→lys mutant versus native 5-HT2A receptor): 5 fold

O=C(c1ccc(F)cc1)C1CCN(CCn2c(=O)[nH]c3ccccc3c2=O)CC1 [^3 H-ketanserin]
KD of 3H-ketanserin, native versus mutant [3]: did not differ between the native and mutant receptors
BMAX [4]: 193 ± 37 fmol/mg

CN1C[C@@H](NS(=O)(=O)N(C)C)C[C@@H]2c3cccc4c3c(cn4C)C[C@H]21 [^3 H-mesulergine]
5-HT2C receptor density (3H-mesulergine saturation) [5]: greater in cells transfected with native receptors than in cells transfected with either the ser→lys or the ser→phe mutant receptors

O=C(c1ccc(F)cc1)C1CCN(CCn2c(=O)[nH]c3ccccc3c2=O)CC1 [ketanserin]
change in binding affinity at the mutant 5-HT2A receptor [2]: no change in binding affinity
decrease of the constitutive IP stimulation ([6]; COS-7, 5-HT2A cys→lys receptor): 80%

CN1CCN(C2=Nc3ccccc3Oc3ccc(Cl)cc32)CC1 [loxapine]
reduction of constitutively activated IP basal activity [6]: reduce the constitutively activated IP basal activity

CN1CCN2c3ccccc3Cc3ccccc3C2C1 (stereo not shown) [mianserin]
change in binding affinity at the mutant 5-HT2A receptor [2]: apparent decease in the binding affinity

O=C(CCCN1CCC2(CC1)C(=O)NCN2c1ccccc1)c1ccc(F)cc1 [spiperone]
change in binding affinity at the mutant 5-HT2A receptor [2]: no change in binding affinity
reduction of constitutively activated IP basal activity [6]: reduce the constitutively activated IP basal activity

B1: ser→phe mutant 5-HT2C receptors: rat 5-HT2C receptor with serine #312 mutated to phenylalanine (protein, UniProt P08909 33-460, looked up, variant S312F)
5-hydroxytryptamine receptor …: IVTDTFNSSDGGRLFQFPDGVQNWPALSIVVIIIMTIGGNILVIMAVSMEKKLHNATNYFLMSLAIADMLVGLLVMPLSLLAILYDYVWPLPRYLCPVWISLDVLFSTASIMHLCAISLDRYVAIRNPIEHSRFNSRTKAIMKIAIVWAISIGVSVPIPVIGLRDESKVFVNNTTCVLNDPNFVLIGSFVAFFIPLTIMVITYFLTIYVLRRQTLMLLRGHTEEELANMSLNFLNCCCKKNGGEEENAPNPNPDQKPRRKKKEKRPRGTMQAINNEKKAFKVLGIVFFVFLIMWCPFFITNILSVLCGKACNQKLMEKLLNVFVWIGYVCSGINPLVYTLFNKIYRRAFSKYLRCDYKPDKKPPVRQIPRVAATALSGRELNVNIYRHTNERVARKANDPEPGIEMQVENLELPVNPSNVVSERISSV
fold increase in basal levels of IP production compared with cells expressing native 5-HT2C receptors [7]: 2 fold
